Data published in patent US4472392A, “Sulfonate containing ester prodrugs of corticosteroids” (The Upjohn Company, priority 1983, dated 1984).
Structures can show the parent of a compound that is named as a salt.

Tests used:
[1] = M. Kawamura et al., Yakugaku Zasshi, 91, 871 (1971); cited from earlier work
[2] = Base catalyzed hydrolysis rate in concentrated versus dilute solution; type: physicochemical; conditions: 0.11M solution versus 5×10^-4 M solution
Excerpt: The actual shelf-life of formulations of the above compounds would be expected to differ from the above estimates for two reasons: (1) The solubility of the parent corticosteroid formed on hydrolysis may be exceeded prior to 10% degradation of the ester. Micelle formation by the intact prodrugs of Formula I results in solubilization of free corticosteroid thereby prolonging shelf-life. […]. The degree of solubilization varies with the ester concentration, nature of the pro-moiety, and the structure of the corticosteroid. (2) Micelle formation by the intact prodrug in concentrated solutions results in stabilization of the ester linkage toward base catalyzed hydrolysis. For example, the base catalyzed hydrolysis rate in a 0.11M solution of the compound of Example 1 is less than one-half the rate in a 5×10^-4 M solution.

[3] = Estimated t90% (time for 10% hydrolysis) in dilute aqueous solution at 25° C; type: physicochemical; conditions: extrapolated from rate constants at pH 2 and 8 (0.01 ionic strength buffers) to the pH at which hydrolysis is a minimum
Method: The solution stability of the compounds of Formula I varies to some extent depending on the nature of X and Y and the values for m and n. Shown in Table I are estimates of t90% (time for 10% hydrolysis) of various derivatives in dilute aqueous solutions at 25° C. These estimates are based on an extrapolation of the rate constants for acid and base catalyzed hydrolysis to the pH at which hydrolysis is a minimum. The rate constants for acid and base catalyzed hydrolysis were determined at pH 2 and 8, respectively, in 0.01 ionic strength buffers.

Row | Compound | activity in mice [1] | base catalyzed hydrolysis rate relative to the rate in dilute solution [2] | Estimated t90% (time for 10% hydrolysis) [3] [years]
1 | C[C@]12CCC(=O)C=C1CC[C@@H]1[C@@H]2[C@@H](O)C[C@@]2(C)[C@H]1CC[C@]2(O)C(=O)COS(=O)(=O)O [21-sulfate of hydrocortisone] | inactive | – | –
2 | C[C@H]1C[C@@H]2[C@H]([C@@H](O)C[C@@]3(C)[C@H]2CC[C@]3(O)C(=O)COC(=O)CCC(=O)N(C)CCS(=O)(=O)O)[C@@]2(C)C=CC(=O)C=C12 [Example 1, N-Methyl taurine amide of methylprednisolone 21-hemisuccinate (Na salt)] | – | less than one-half | 3.9
3 | C[C@H]1C[C@@H]2[C@H]([C@@H](O)C[C@@]3(C)[C@H]2CC[C@]3(O)C(=O)COC(=O)CCCCCCC(=O)NCCS(=O)(=O)O)[C@@]2(C)C=CC(=O)C=C12 [Example 2, Taurine amide of methylprednisolone 21-suberate (Na salt)] | – | – | 3.9
4 | C[C@H]1C[C@@H]2[C@H]([C@@H](O)C[C@@]3(C)[C@H]2CC[C@]3(O)C(=O)COC(=O)CCCCCCC(=O)N(C)CCS(=O)(=O)O)[C@@]2(C)C=CC(=O)C=C12 [Example 3, N-Methyltaurine amide of methylprednisolone 21-hemisuberate (Na salt)] | – | – | 4.1
